Measurements from patent US20180311220A1, “TREATMENT OF CANCERS WITH ACQUIRED RESISTANCE TO KIT INHIBITORS” (Bayer HealthCare LLC, priority 2007, published 2018).
pIC50: −log10 of the molar value.

Columns and labels:
Format in all cases: cell-based, murine
[1] = tested on: Ba/F3 cells expressing human c-KIT exon 11 deletion + D816G; experiment: Ba/F3 cell proliferation assay (CellTiter-Glo), c-KIT exon 11 deletion + D816G; conditions: BaF3; Exon 11 + D816G; n ≥ 3; 72 h incubation; read-out: Average IC50 for c-KIT-expressing Ba/F3 cellular proliferation, Exon 11 + D816G
Protocol: (§1) The cDNA encoding full length human c-KIT with a deletion in exon 11 that removed amino acid residues 557-558 was ligated into the mammalian expression vector pClneo (Promega). […] All mutations were confirmed by DNA sequencing.
(§2) Selective pressure was applied to the transfected cells by removing IL-3 from the culture medium. After IL-independent populations, further selective pressure was applied by also growing the cells in the presence of 1 mg/mL G418. […] The stable pools were further characterized by sequencing genomic DNA to confirm the presence of the transfected c-KIT cDNA.
(§3) This assay utilizes cellular ATP as a marker for cell proliferation/viability. On day 1, Ba/F3 cells were plated in 96 well dishes (Costar 3603) at 10,000 cells per well in 10% FBS in RPMI medium with 1 mg/ml G418. […] Plates were then incubated in a 5% CO2 incubator at 37° C. for 3 days. […] The cells were then incubated on a shaker for 5 minutes at room temperature, and luminescence was measured on a Victor 5 (Perkin Elmer) spectrophotometer.
(§4) Growth inhibition was measured by comparing luminescence signal from treated vs. untreated cells in assay plates, and the IC50 analysis of cell proliferation inhibition by compounds was analyzed using Analyze 5 in-house software. The IC50 values are mean values calculated from at least three experiments.

[2] = tested on: Ba/F3 cells expressing human c-KIT exon 11 deletion + Y823D; experiment: Ba/F3 cell proliferation assay (CellTiter-Glo), c-KIT exon 11 deletion + Y823D; conditions: BaF3; Exon 11 + Y823D; n ≥ 3; 72 h incubation; read-out: Average IC50 for c-KIT-expressing Ba/F3 cellular proliferation, Exon 11 + Y823D
Protocol: as §1, §2, §3, §4

[3] = tested on: Ba/F3 cells expressing human c-KIT exon 11 deletion + T6701; experiment: Ba/F3 cell proliferation assay (CellTiter-Glo), c-KIT exon 11 deletion + T6701; conditions: BaF3; Exon 11 +T6701; n ≥ 3; 72 h incubation; read-out: Average IC50 for c-KIT-expressing Ba/F3 cellular proliferation, Exon 11 +T6701
Protocol: as §1, §2, §3, §4

[4] = tested on: Ba/F3 cells expressing human c-KIT exon 11 deletion + V654A; experiment: Ba/F3 cell proliferation assay (CellTiter-Glo), c-KIT exon 11 deletion + V654A; conditions: BaF3; Exon 11 + V654A; n ≥ 3; 72 h incubation; read-out: Average IC50 for c-KIT-expressing Ba/F3 cellular proliferation, Eson 11 + V654A
Protocol: as §1, §2, §3, §4

[5] = tested on: Ba/F3 cells expressing human c-KIT with exon 11 deletion (residues 557-558); experiment: Ba/F3 cell proliferation assay (CellTiter-Glo), c-KIT exon 11 deletion; conditions: BaF3, n ≥ 3, 72 h incubation, read-out: Average IC50 for c-KIT-expressing Ba/F3 cellular proliferation, Exon 11 Deletion
Protocol: as §1, §2, §3, §4

[6] = tested on: Ba/F3 cells expressing human c-KIT exon 11 deletion + N822K; experiment: Ba/F3 cell proliferation assay (CellTiter-Glo), c-KIT exon 11 deletion + N822K; conditions: BaF3; Exon 11 + N822K; n ≥ 3; 72 h incubation; read-out: Average IC50 for c-KIT-expressing Ba/F3 cellular proliferation, Exon 11 + N822K
Protocol: as §1, §2, §3, §4

pIC50 [1]: 7.85
pIC50 [2]: 6.89
pIC50 [3]: 7.72
pIC50 [4]: 7.42
pIC50 [5]: 8.15
pIC50 [6]: 7.92
Structure (SMILES): CNC(=O)c1cc(Oc2ccc(NC(=O)Nc3ccc(Cl)c(C(F)(F)F)c3)c(F)c2)ccn1 [DAST, 4{4-[3-(4-chloro-3-trifluoromethylphenyl)-ureido]-3-fluorophenoxy}-pyridine-2-carboxylic acid methylamide]
